According to US20240376097A1, “BCL-2 Inhibitor” (BeiGene Ltd., priority 2020, published 2024):

Experiments:
[1] = biological target: recombinant human Bcl-2-G101V protein (Homo sapiens (Human), UniProt P10415, G101V); assay: Bcl-2-G101V TR-FRET Assay; format: binding; details: Bcl-2 G101V mutant, TR-FRET; read-out: Biochemical assay (IC50, nM) Bcl-2 G101V
In short: (§1)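 Displacement of ligand from recombinant human Bcl-2-G101V measured by TR-FRET (ex337 nm, em490/520 nm), inhibition derived from the 490/520 ratio across compound titrations. IC50 from four-parameter logistic fit.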

[2] = system: recombinant human Bcl-2-G101V protein; assay: Bcl-2-G101V TR-FRET Assay; format: binding; details: ratio of biochemical IC50 Bcl-2 G101V / Bcl-2 WT
In short: as §1

[3] = system: BCL-2 G101V knock-in cell line H96 (derive from RS4;11); assay: Bcl 2-G101V Knock-In RS4;11 Cell Proliferation Assay; format: cell-based; details: Homo sapiens, RS4;11 Bcl-2 G101V knock-in clone H96, 48 hrs, CellTiter-GLO, read-out: Cellular proliferation assay (IC50, nM) RS4
In short: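 H96, a CRISPR-generated RS4;11 clone carrying BCL2-G101V knock-in (WES/RNA-seq validated), seeded 50,000 per well and exposed 48 h at 37 °C to 10-point dilutions topping at 1 or 10 μM. Viability by CellTiter-Glo luminescence; mean IC50.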

[4] = system: RS4;11 (BCL-2 dependent acute lymphoblastic leukemia cell line); assay: RS4;11 Cell Proliferation Assay; format: cell-based; details: Homo sapiens, RS4-11, RS4;11 cells, read-out: Cellular proliferation assay (IC50, nM) RS4
In short: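 RS4;11 cells, 50,000 per well in RPMI-1640 with 10% FBS, treated 48 h at 37 °C with a 10-point dilution series topping at 1 μM. Viability read by CellTiter-Glo ATP luminescence; mean IC50 reported.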

[5] = biological target: Recombinant human Bcl-2 protein (Homo sapiens (Human), UniProt P10415); assay: Bcl-2 TR-FRET Assay; format: binding; details: Bcl-2 wild type, TR-FRET; read-out: Biochemical assay (IC50, nM) Bcl-2 WT
In short: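 Compounds were pre-incubated with 0.05 nM recombinant Bcl-2 for 0.5 h at room temperature in potassium phosphate buffer, pH 7.5. FITC-Bak peptide (0.5 nM) and Tb-cryptate antibody were then added for 1 h. Percent inhibition from TR-FRET signals gave IC50 values.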

SMILES | IC50 [1] [nM] | Ratio of Bcl-2 G101V/WT [2] | IC50 [3] [nM] | IC50 [4] [nM] | IC50 [5] [nM]
COc1ccc(CN2CCN(C3CC4(CCN(c5ccc(C(=O)NS(=O)(=O)c6ccc(NC[C@H]7CC[C@](C)(O)CC7)c([N+](=O)[O-])c6)c(Oc6cnc7[nH]ccc7c6)c5)CC4)C3)C(c3ccccc3C(C)C)C2)cc1Br (stereo partly drawn) [Example 143, 2-((1H-pyrrolo[2,3-b]pyridin-5-yl)oxy)-4-(2-(4-(3-bromo-4-methoxybenzyl)-2-(2-isopropylphenyl)piperazin-1-yl)-7-azaspiro[3.5]nonan-7-yl)-N-((4-((((1r,4r)-4-hydroxy-4-methylcyclohexyl)methyl)amino)-3-nitrophenyl)sulfonyl)benzamide] | 2.6 | 5.5 | 5.15 | 0.674 | 0.48
COc1cc(CN2CCN(C3CC4(CCN(c5ccc(C(=O)NS(=O)(=O)c6ccc(NC[C@H]7CC[C@](C)(O)CC7)c([N+](=O)[O-])c6)c(Oc6cnc7[nH]ccc7c6)c5)CC4)C3)C(c3ccccc3C(C)C)C2)cc(Cl)c1OC (stereo partly drawn) [Example 148, 2-((1H-pyrrolo[2,3-b]pyridin-5-yl)oxy)-4-(2-(4-(3-chloro-4,5-dimethoxybenzyl)-2-(2-isopropylphenyl)piperazin-1-yl)-7-azaspiro[3.5]nonan-7-yl)-N-((4-((((1r,4r)-4-hydroxy-4-methylcyclohexyl)methyl)amino)-3-nitrophenyl)sulfonyl)benzamide] | 2 | 3.6 | 2.81 | 0.46 | 0.56
CC(C)c1ccccc1[C@@H]1CN(Cc2cccc3c2OCCO3)CCN1C1CC2(C1)CN(c1ccc(C(=O)NS(=O)(=O)c3ccc(NC[C@H]4CC[C@](C)(O)CC4)c([N+](=O)[O-])c3)c(Oc3cnc4[nH]ccc4c3)c1)C2 [Example 149a, 2-((1H-pyrrolo[2,3-b]pyridin-5-yl)oxy)-4-(6-((R)-4-((2,3-dihydrobenzo[b][1,4]dioxin-5-yl)methyl)-2-(2-isopropylphenyl)piperazin-1-yl)-2-azaspiro[3.3]heptan-2-yl)-N-((4-((((1r,4r)-4-hydroxy-4-methylcyclohexyl)methyl)amino)-3-nitrophenyl)sulfonyl)benzamide] | 0.27 | 2.6 | 0.67 | 0.17 | 0.11
CC(C)c1ccccc1[C@H]1CN(Cc2cccc3c2OCCO3)CCN1C1CC2(C1)CN(c1ccc(C(=O)NS(=O)(=O)c3ccc(NC[C@H]4CC[C@](C)(O)CC4)c([N+](=O)[O-])c3)c(Oc3cnc4[nH]ccc4c3)c1)C2 [Example 149b, 2-((1H-pyrrolo[2,3-b]pyridin-5-yl)oxy)-4-(6-((S)-4-((2,3-dihydrobenzo[b][1,4]dioxin-5-yl)methyl)-2-(2-isopropylphenyl)piperazin-1-yl)-2-azaspiro[3.3]heptan-2-yl)-N-((4-((((1r,4r)-4-hydroxy-4-methylcyclohexyl)methyl)amino)-3-nitrophenyl)sulfonyl)benzamide] | 8.4 | 12 | 20.4 | 5.8 | 0.7
C#Cc1cc(CN2CCN(C3CC4(CCN(c5ccc(C(=O)NS(=O)(=O)c6ccc(NC[C@H]7CC[C@](C)(O)CC7)c([N+](=O)[O-])c6)c(Oc6cnc7[nH]ccc7c6)c5)CC4)C3)C(c3ccccc3C(C)C)C2)ccc1OC (stereo partly drawn) [Example 151, 2-((1H-pyrrolo[2,3-b]pyridin-5-yl)oxy)-4-(2-(4-(3-ethynyl-4-methoxybenzyl)-2-(2-isopropylphenyl)piperazin-1-yl)-7-azaspiro[3.5]nonan-7-yl)-N-((4-((((1r,4r)-4-hydroxy-4-methylcyclohexyl)methyl)amino)-3-nitrophenyl)sulfonyl)benzamide] | 2.1 | 4.9 | 3.86 | 0.53 | 0.43
COc1cc(CN2CCN(C3CC4(CCN(c5ccc(C(=O)NS(=O)(=O)c6ccc(NC[C@H]7CC[C@](C)(O)CC7)c([N+](=O)[O-])c6)c(Oc6cnc7[nH]ccc7c6)c5)CC4)C3)C(c3ccccc3C(C)C)C2)cc(F)c1OC (stereo partly drawn) [Example 152, 2-((1H-pyrrolo[2,3-b]pyridin-5-yl)oxy)-4-(2-(4-(3-fluoro-4,5-dimethoxybenzyl)-2-(2-isopropylphenyl)piperazin-1-yl)-7-azaspiro[3.5]nonan-7-yl)-N-((4-((((1r,4r)-4-hydroxy-4-methylcyclohexyl)methyl)amino)-3-nitrophenyl)sulfonyl)benzamide] | 0.89 | 3.5 | 1.31 | 0.35 | 0.25
CCc1ccc(CN2CCN(C3CC4(CCN(c5ccc(C(=O)NS(=O)(=O)c6ccc(NC[C@H]7CC[C@](C)(O)CC7)c([N+](=O)[O-])c6)c(Oc6cnc7[nH]ccc7c6)c5)CC4)C3)C(c3ccccc3C(C)C)C2)cc1 (stereo partly drawn) [Example 153] | 2.7 | 4.4 | 6.48 | 0.75 | 0.6
COc1cnc(CN2CCN(C3CC4(CCN(c5ccc(C(=O)NS(=O)(=O)c6ccc(NC[C@H]7CC[C@](C)(O)CC7)c([N+](=O)[O-])c6)c(Oc6cnc7[nH]ccc7c6)c5)CC4)C3)C(c3ccccc3C(C)C)C2)cn1 (stereo partly drawn) [Example 154, 2-((1H-pyrrolo[2,3-b]pyridin-5-yl)oxy)-N-((4-((((1r,4r)-4-hydroxy-4-methylcyclohexyl)methyl)amino)-3-nitrophenyl)sulfonyl)-4-(2-(2-(2-isopropylphenyl)-4-((5-methoxypyrazin-2-yl)methyl)piperazin-1-yl)-7-azaspiro[3.5]nonan-7-yl)benzamide] | 0.3 | 6 | 2.22 | 0.38 | 0.05
COc1cc(CN2CCN(C3CC4(CCN(c5ccc(C(=O)NS(=O)(=O)c6ccc(NC[C@H]7CC[C@](C)(O)CC7)c([N+](=O)[O-])c6)c(Oc6cnc7[nH]ccc7c6)c5)CC4)C3)C(c3ccccc3C(C)C)C2)ccc1C1CC1 (stereo partly drawn) [Example 156, 2-((1H-pyrrolo[2,3-b]pyridin-5-yl)oxy)-4-(2-(4-(4-cyclopropyl-3-methoxybenzyl)-2-(2-isopropylphenyl)piperazin-1-yl)-7-azaspiro[3.5]nonan-7-yl)-N-((4-((((1r,4r)-4-hydroxy-4-methylcyclohexyl)methyl)amino)-3-nitrophenyl)sulfonyl)benzamide] | 3.6 | 4.9 | 1.42 | 0.375 | 0.73
COc1ccc(CN2CCN(C3CC4(CCN(c5ccc(C(=O)NS(=O)(=O)c6ccc(NC[C@H]7CC[C@](C)(O)CC7)c([N+](=O)[O-])c6)c(Oc6cnc7[nH]cc(F)c7c6)c5)CC4)C3)C(c3ccccc3C(C)C)C2)cc1OC(F)F (stereo partly drawn) [Example 159, 4-(2-(4-(3-(difluoromethoxy)-4-methoxybenzyl)-2-(2-isopropylphenyl)piperazin-1-yl)-7-azaspiro[3.5]nonan-7-yl)-2-((3-fluoro-1H-pyrrolo[2,3-b]pyridin-5-yl)oxy)-N-((4-((((1r,4r)-4-hydroxy-4-methylcyclohexyl)methyl)amino)-3-nitrophenyl)sulfonyl) benzamide] | 0.4 | 3.4 | 1.71 | 0.386 | 0.12
CC(C)c1ccccc1C1CN(Cc2ccc(C3CC3)cc2)CCN1C1CC2(CCN(c3ccc(C(=O)NS(=O)(=O)c4ccc(NC[C@H]5CC[C@](C)(O)CC5)c([N+](=O)[O-])c4)c(Oc4cnc5[nH]cc(F)c5c4)c3)CC2)C1 (stereo partly drawn) [Example 160, 4-(2-(4-(4-cyclopropylbenzyl)-2-(2-isopropylphenyl)piperazin-1-yl)-7-azaspiro[3.5]nonan-7-yl)-2-((3-fluoro-1H-pyrrolo[2,3-b]pyridin-5-yl)oxy)-N-((4-((((1r,4r)-4-hydroxy-4-methylcyclohexyl)methyl)amino)-3-nitrophenyl)sulfonyl) benzamide] | 6 | 5 | 2.87 | 0.564 | 1.2
COc1cc(CN2CCN(C3CC4(CCN(c5ccc(C(=O)NS(=O)(=O)c6ccc(NC[C@H]7CC[C@](C)(O)CC7)c([N+](=O)[O-])c6)c(Oc6cnc7[nH]cc(F)c7c6)c5)CC4)C3)C(c3ccccc3C(C)C)C2)ccc1C1CC1 (stereo partly drawn) [Example 161, 4-(2-(4-(4-cyclopropyl-3-methoxybenzyl)-2-(2-isopropylphenyl)piperazin-1-yl)-7-azaspiro[3.5]nonan-7-yl)-2-((3-fluoro-1H-pyrrolo[2,3-b]pyridin-5-yl)oxy)-N-((4-((((1r,4r)-4-hydroxy-4-methylcyclohexyl)methyl)amino)-3-nitrophenyl)sulfonyl) benzamide] | 3.9 | 6.8 | 1.22 | 0.46 | 0.42
